Series [1] relates to hepatic P450 monoxygenase activities. Nature of the series: O-dealkylation of 7-methoxyresorufin in hepatic microsomes. The note with it: CPRlox/- +CreALB mice, nmol metabolite per nmol P450.
Series [2] has as its system control, CPR heterozygous null and hepatic CPR null mice. The series can be described thus: Pentobarbital sleep time (regain of righting reflex). The note with it: 20 mg/kg i.p. It counts as in vivo, mouse. On the procedure: c Time taken for regain of righting reflex in adult male mice of various genotypes following treatment with sodium pentobarbital at 20 mg/kg i.p. (n=3). Values are expressed as mean±SEM.
Pentobarbital sleep time—adult male CPR^lox/lox+Cre^ALB, CPR^lox/−+Cre^ALB, CPR^lox/− and CPR^+/++Cre^ALB mice (n=3) were given a single intraperitoneal (i.p.) dose of sodium pentobarbitone (Sagatal) at 20 mg/kg body weight. The time taken for the mice to lose, and subsequently to regain, their righting reflex was measured.
Cytochrome P450s involved in drug metabolism are distributed throughout the tissues of the body; it has been estimated that a significant proportion of drug metabolism (up to 30%) may be extra-hepatic. In order to test the level of extra-hepatic metabolism as well as the in vivo effects of hepatic CPR nulls on drug disposition, we measured barbiturate-induced sleeping times. This method has been used since the 1960s as an indicator of drug metabolising activity.

Series [3] relates to hepatic P450 monoxygenase activities. The series can be described thus: Microsomal hydroxylation of testosterone in liver microsomes. The note with it: liver microsomes of hepatic CPR nulls of both sexes. (In general: Microsomes from liver hold many membrane-bound enzymes, among them those of drug oxidation.)

Where only a bound is given, the exact number is not on record here.

Regarding `COc1ccc2nc3ccc(=O)cc-3oc2c1` [7-methoxyresortifin], the results for the “reduction of O-dealkylation” value in series [1] (females) and in series [1] (males) were 98.5% and 99.5%, respectively.

In the case of `CCCC(C)C1(CC)C(=O)NC(=O)NC1=O` (stereo not drawn) [pentobarbitone], the average sleeping period entry in series [2] (CPR heterozygous null mice (CPR+/-)) is “approximately 50 minutes”. In addition, in series [2] (control mice), the induction of sleep result is “failed to induce sleep”. The compound further came in with a sleeping period in series [2] (mice lacking hepatic CPR (CPRlox/- +CreALB or CPRlox/lox +CreALB)) greater than 2 h.

Turning to `C[C@]12CC[C@H]3[C@@H](CCC4=CC(=O)CC[C@@]43C)[C@@H]1CC[C@@H]2O` [testosterone], the 16-hydroxylation of testosterone result in series [3] is “undetectable”.

The record behind these values is patent US7700822B2, “Modulation of cytochrome P450 reductase activity” (Cancer Research Technology Limited, priority 2002, dated 2010).
